Tests used:
Type in all cases: biochemical
c-Met kinase = target: T1, c-Met kinase (Homo sapiens, UniProt P08581); test: c-Met kinase assay (33P incorporation into Poly(Glu-Tyr)); conditions: 500 nM test compound
T1 construct: recombinant N-terminal 6×His-tagged c-Met kinase domain construct expressed from baculovirus; 6xHis (N); made in house
In short: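 Recombinant N-terminal 6×His-tagged c-Met kinase domain (baculovirus-expressed, 5 ng) acted on Poly(Glu-Tyr) 4:1 with 100 μM ATP plus [33P]-γ-ATP in MOPS pH 7.0 buffer, 30 min at 30° C. Compound was at 500 nM. Filter-retained radioactivity was compared with the DMSO control to give percent inhibition.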

Aurora B kinase = target: T2, Aurora B kinase (Homo sapiens, UniProt Q96GD4); test: Aurora B kinase assay ([γ-33P]ATP, CHOCKtide substrate); conditions: 1.0 μM test compound
T2 construct: purchased Cell signaling
T2 sequence (Q96GD4 whole entry): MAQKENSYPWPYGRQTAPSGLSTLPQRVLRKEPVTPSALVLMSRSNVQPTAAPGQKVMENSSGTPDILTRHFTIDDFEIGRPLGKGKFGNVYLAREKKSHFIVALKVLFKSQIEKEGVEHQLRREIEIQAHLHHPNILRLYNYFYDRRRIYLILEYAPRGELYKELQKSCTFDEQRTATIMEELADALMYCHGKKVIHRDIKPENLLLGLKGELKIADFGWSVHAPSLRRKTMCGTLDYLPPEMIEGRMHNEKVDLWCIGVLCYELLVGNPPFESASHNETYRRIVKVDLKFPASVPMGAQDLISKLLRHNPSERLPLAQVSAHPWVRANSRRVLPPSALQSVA
In short: (§1)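 Recombinant Aurora A (1 ng) or Aurora B (2.5 ng) incubated with test compound, CHOCKtide (1 μg) and [γ-33P]ATP/ATP at 10 μM (Aurora A) or 40 μM (Aurora B), 30 min at 33 °C. Stopped with phosphoric acid; filter-bound 33P counted; IC50 = half-maximal inhibition.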

Aurora A kinase = target: T3, Aurora A kinase (Homo sapiens, UniProt O14965); test: Aurora A kinase assay ([γ-33P]ATP, CHOCKtide substrate); conditions: 1.0 μM test compound
T3 construct: purchased Upstate
T3 sequence (O14965 1-403): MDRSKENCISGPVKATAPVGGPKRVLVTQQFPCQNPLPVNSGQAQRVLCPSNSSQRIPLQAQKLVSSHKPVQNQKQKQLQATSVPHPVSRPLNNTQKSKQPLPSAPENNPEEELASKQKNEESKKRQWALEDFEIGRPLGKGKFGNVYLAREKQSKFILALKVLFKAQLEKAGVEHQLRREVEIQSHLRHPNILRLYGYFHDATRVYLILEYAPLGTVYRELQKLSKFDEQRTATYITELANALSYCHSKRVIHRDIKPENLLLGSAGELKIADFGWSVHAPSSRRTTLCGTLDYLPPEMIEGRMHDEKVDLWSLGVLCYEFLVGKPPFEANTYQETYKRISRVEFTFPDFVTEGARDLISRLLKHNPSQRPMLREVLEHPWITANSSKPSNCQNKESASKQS
In short: as §1

Flt3 kinase = target: T4, Flt3 kinase (Homo sapiens, UniProt P36888); test: Flt3 kinase assay (33P incorporation into Poly(Glu-Tyr)); conditions: 100 nM test compound; read-out: Inhibition at 100 nM (%) Flt-3
T4 construct: recombinant N-terminal 6×His-tagged Flt3 kinase domain construct expressed from baculovirus; 6xHis (N); made in house
T4 sequence (P36888 610-943 limits assumed): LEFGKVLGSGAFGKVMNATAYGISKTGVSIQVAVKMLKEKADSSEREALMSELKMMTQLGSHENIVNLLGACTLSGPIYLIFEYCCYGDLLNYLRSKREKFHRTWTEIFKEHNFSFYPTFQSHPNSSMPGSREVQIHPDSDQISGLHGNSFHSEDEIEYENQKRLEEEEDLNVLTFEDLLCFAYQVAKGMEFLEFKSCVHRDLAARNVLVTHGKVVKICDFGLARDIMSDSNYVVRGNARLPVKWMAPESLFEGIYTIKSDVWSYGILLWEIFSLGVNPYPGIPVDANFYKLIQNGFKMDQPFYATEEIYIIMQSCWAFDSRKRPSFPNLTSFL
Protocol: Inhibition of Flt3 kinase activity by compounds disclosed herein was quantified by measuring the amount of [^33P] incorporated into the substrate in the presence of a test compound. Briefly, a reaction mixture of 25 μL final volume containing 5 ng of Flt3 kinase (obtained by purifying recombinant N-terminal 6×His-tagged Flt3 kinase domain construct expressed from baculovirus), 5 μg of the substrate (Poly (Glu-Tyr, 4:1, Sigma)), kinase reaction buffer (20 mM MOPS pH 7.0, 1 mM EDTA, 5% glycerol, 0.01% Brij-35, 0.1% β-mercaptoethanol, 1 mg/mL BSA, 100 μM ATP, 0.1 μCi per well [^33P]-γ-ATP (2,500-3,000 Ci/mmol)), and a test compound (100 nM, diluted with 4% DMSO) or DMSO (as the control) was incubated at 30° C. for 30 minutes. The reaction was stopped by adding 5 μL of 3% phosphoric acid solution. The resultant reaction solution was then harvested onto a filter plate (UniFilter-96 GF/B, PerkinElmer), washed 20 times for 5 min with d.d. H2O, and followed by the addition of 30 μL of MicroScint™-20 Cocktail (PerkinElmer). The plate was then sealed and counted using a TopCount scintillation detector (PerkinElmer). The percentage of inhibition rate of the test compound was calculated by dividing the retained radioactivity of the test sample with the retained radioactivity of the control sample and shown in Table 3.

PDGFR-β kinase = target: T5, PDGFR-β kinase (Homo sapiens, UniProt P09619); test: PDGFR-β kinase assay (33P incorporation into Poly(Glu-Tyr)); conditions: 500 nM test compound
T5 construct: recombinant N-terminal 6×His-tagged PDGFR-β kinase domain construct expressed by baculovirus; 6xHis (N); made in house
T5 sequence (P09619 600-962 limits assumed): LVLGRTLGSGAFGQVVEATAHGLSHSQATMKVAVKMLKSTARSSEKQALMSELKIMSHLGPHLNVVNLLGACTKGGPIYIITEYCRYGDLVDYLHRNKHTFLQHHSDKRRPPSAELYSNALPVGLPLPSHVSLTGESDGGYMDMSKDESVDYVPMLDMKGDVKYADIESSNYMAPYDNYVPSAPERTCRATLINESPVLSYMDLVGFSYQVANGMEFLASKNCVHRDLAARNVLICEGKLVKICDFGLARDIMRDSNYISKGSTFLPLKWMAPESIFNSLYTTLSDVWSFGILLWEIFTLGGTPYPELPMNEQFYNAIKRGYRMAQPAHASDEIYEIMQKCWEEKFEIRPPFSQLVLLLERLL
Protocol: Inhibition of PDGFR-β kinase activity by compounds disclosed herein was quantified by measuring the amount of [^33P] incorporated into the substrate in the presence of a test compound. Briefly, a reaction mixture of 25 μL final volume containing 55 ng of PDGFR-β kinase (obtained by purifying recombinant N-terminal 6×His-tagged PDGFR-β kinase domain construct expressed by baculovirus), 2.5 μg of the substrate (Poly (Glu-Tyr, 4:1, Sigma)), kinase reaction buffer (20 mM MOPS pH 7.0, 1 mM EDTA, 5% glycerol, 0.01% Brij-35, 0.1% β-mercaptoethanol, 1 mg/mL BSA, 2 mM MnCl2, 30 μM ATP, 0.1 μCi per well [^33P]-γ-ATP (2,500-3,000 Ci/mmol)), and a test compound (500 nM, diluted with 4% DMSO) or DMSO (as the control) was incubated at 30° C. for 30 minutes. The reaction was stopped by adding 5 μL of 3% phosphoric acid solution. The resultant reaction solution was then harvested onto a filter plate (UniFilter-96 GF/B, PerkinElmer), washed 20 times for 5 min with d.d. H2O, and followed by the addition of 30 μL of MicroScint™-20 Cocktail (PerkinElmer). The plate was then sealed and counted using a TopCount scintillation detector (PerkinElmer). The percentage of inhibition rate of the test compound was calculated by dividing the retained radioactivity of the test sample with the retained radioactivity of the control sample and shown in Table 3.

VEGFR2 kinase = target: T6, VEGFR2 kinase (Homo sapiens, UniProt P35968); test: VEGFR2 kinase assay (33P incorporation into Poly(Glu-Tyr)); conditions: 500 nM test compound; read-out: Inhibition at 500 nM (%) VEGFr-2
T6 construct: recombinant N-terminal 6×His-tagged VEGFR2 kinase domain construct expressed by baculovirus; 6xHis (N); made in house
T6 sequence (P35968 834-1162 limits assumed): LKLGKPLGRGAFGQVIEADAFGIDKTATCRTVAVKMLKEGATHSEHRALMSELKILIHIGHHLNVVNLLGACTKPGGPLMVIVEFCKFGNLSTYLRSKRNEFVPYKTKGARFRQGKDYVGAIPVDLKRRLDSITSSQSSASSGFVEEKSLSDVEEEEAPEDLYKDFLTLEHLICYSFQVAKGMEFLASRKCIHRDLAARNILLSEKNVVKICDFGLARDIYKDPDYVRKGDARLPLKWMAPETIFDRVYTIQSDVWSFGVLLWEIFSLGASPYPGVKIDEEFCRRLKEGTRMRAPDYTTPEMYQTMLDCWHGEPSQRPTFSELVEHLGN
Protocol: Inhibition of VEGFR2 kinase activity by compounds disclosed herein was quantified by measuring the amount of [^33P] incorporated into the substrate in the presence of a test compound. Specifically, a reaction mixture with a final volume of 25 μL and containing 6.25 ng of VEGFR2 kinase (obtained by purifying recombinant N-terminal 6×His-tagged VEGFR2 kinase domain construct expressed by baculovirus), 5 μg of substrate (Poly (Glu-Tyr, 4:1, Sigma)), kinase reaction buffer (20 mM MOPS pH 7.0, 1 mM EDTA, 5% glycerol, 0.01% Brij-35, 0.1% β-mercaptoethanol, 1 mg/mL BSA, 100 μM ATP, 0.1 μCi per well [^33P]-γ-ATP (2,500-3,000 Ci/mmol), and 500 nM test compound (final concentration of DMSO was 4%) or 4% DMSO alone (as the control sample), was incubated at 30° C. for 30 minutes. The reaction was then stopped by adding 5 μL of 3% phosphoric acid solution. The resultant solution was transferred to and harvested by a filter plate (UniFilter-96 GF/B, PerkinElmer). The filter plate was then washed 20 times with d.d. H2O for 5 min followed by the addition of 30 μL of MicroScint™-20 Cocktail (PerkinElmer). After the plate was sealed, the retained radioactivity on the filter was counted using a TopCount scintillation detector (PerkinElmer). The percentage of inhibition rate of the test compound was calculated by dividing the retained radioactivity of the test sample with the retained radioactivity of the control sample and shown in Table 3.

T1 sequence (P08581 1078-1345 limits assumed): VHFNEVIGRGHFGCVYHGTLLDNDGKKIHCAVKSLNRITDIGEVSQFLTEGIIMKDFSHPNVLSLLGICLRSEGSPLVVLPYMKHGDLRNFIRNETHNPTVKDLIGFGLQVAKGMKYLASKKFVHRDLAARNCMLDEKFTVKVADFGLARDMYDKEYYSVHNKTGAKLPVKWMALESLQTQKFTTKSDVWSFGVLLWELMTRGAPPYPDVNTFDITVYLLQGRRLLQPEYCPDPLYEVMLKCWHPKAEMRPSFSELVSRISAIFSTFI

O=C(O)CCc1c(/C=C2\C(=O)Nc3cc(-c4ccc(O)cc4)ccc32)[nH]c2c1C(=O)CCCC2 [DCB-70151, (Z)-3-(2-((6-(4-hydroxyphenyl)-2-oxoindolin-3-ylidene)methyl)-4-oxo-1,4,5,6,7,8-hexahydrocyclohepta[b]pyrrol-3-yl)propanoic acid]
inhibition at 0.5 µM (c-Met kinase): -6.5%
inhibition at 1 µM (Aurora B kinase): 23.6%
inhibition at 1 µM (Aurora A kinase): 37.2%
inhibition at 0.1 µM (Flt3 kinase): 42.2%

O=C(O)CCc1c(/C=C2\C(=O)Nc3ccc(NC(=O)c4ccc([N+](=O)[O-])cc4)cc32)[nH]c2c1C(=O)CCC2 [DCB-70142, (Z)-3-(2-((5-(4-nitrobenzamido)-2-oxoindolin-3-ylidene)methyl)-4-oxo-4,5,6,7-tetrahydro-1H-indol-3-yl)propanoic acid]
inhibition at 0.5 µM (PDGFR-β kinase): 7.9%
inhibition at 0.5 µM (VEGFR2 kinase): 44.8%
inhibition at 1 µM (Aurora B kinase): 2.4%
inhibition at 1 µM (Aurora A kinase): 27.1%
inhibition at 0.1 µM (Flt3 kinase): 11.8%

CCOC(=O)CCc1c(/C=C2\C(=O)Nc3cc(-c4ccc(O)cc4)ccc32)[nH]c2c1C(=O)CCCC2 [DCB-70150, (Z)-ethyl 3-(2-((6-(4-hydroxyphenyl)-2-oxoindolin-3-ylidene)methyl)-4-oxo-1,4,5,6,7,8-hexahydrocyclohepta[b]pyrrol-3-yl)propanoate]
inhibition at 0.5 µM (c-Met kinase): 0.2%
inhibition at 1 µM (Aurora B kinase): 18%
inhibition at 1 µM (Aurora A kinase): 8.9%
inhibition at 0.1 µM (Flt3 kinase): 17.1%

— US7897602B2, “Indolinone compounds as kinase inhibitors” (Development Center for Biotechnology, priority 2009, dated 2011)
